One compound from patent US9701709B2 (REATA PHARMACEUTICALS, INC., priority 2012, dated 2017) can be followed below.

In data set [1] the test system is RANKL-induced osteoclastogenesis in RAW264.7. Description: RANKL-induced osteoclastogenesis (TRAP activity) in RAW264.7. Format: cell-based. The note with it: Mus musculus, 96 h, 50 ng/mL RANKL, four days, read-out: IC50, RANKL-induced TRAP activity and formation of osteoclasts. On the procedure:
STAT3 (124H6) and phospho-STAT3 (Tyr705) monoclonal antibodies were from Cell Signaling Technology. Peroxidase-conjugated Affini-pure Goat anti-Rabbit IgG and Peroxidase-conjugated Affini-pure Goat anti-Mouse IgG were from Jackson ImmunoResearch. Osteoclastogenesis is a multi-step differentiation process that results from the binding of RANKL to its receptor, RANK, on cells of hematopoietic origin. […] RAW 264.7 cells were plated in 24-well plates at a density of 5,000 cells/well. […] The treated cells were incubated for four days to allow differentiation into osteoclasts. Differentiation into osteoclasts was assessed by measuring TRAP activity. In brief, 90 μl of conditioned cell culture media was removed from each test well and aliquoted into triplicate wells (30 μL/well) of a 96-well plate. 170 μL of TRAP Assay buffer (Kamiya Biomedical) was then added to each well and the plate was incubated at 37° C. for 3 hours. Following the incubation, absorbance at 540 nm was determined using a Spectramax M2 plate reading spectrophotometer.

For data set [2], the system named is pyruvate in C2Cl2 muscle cells. Description: Pyruvate levels in C2Cl2 myotubes. Type of data set: cell-based, rodent. The note with it: differentiated C2Cl2 myotubes; 250 nM or 500 nM, 18 h. As for the experimental part: Following drug treatment, media was removed and cells were washed with PBS. Cells were lysed in Pyruvate Assay Buffer (Pyruvate Assay Kit, BioVision, Catalog # K609-100). Cell lysates were centrifuged (10 min at 14,000 rpm, 4° C.) and pyruvate levels were measured in the supernatant.

A short description of data set [3]: Oral pharmacokinetics in rats. Format: in vivo, rat. The note with it: oral suspension, 10 to 100 mg/kg. As for the experimental part: (§1) Measurements were performed on TQD and QToF mass spectrometers (Waters).
(§2) Following oral administration of a suspension formulation at doses of 10 to 100 mg/kg, maximal concentrations were observed within 1 to 2 h in mice, and within 1 to 24 h in rats and monkeys.

Data set [4] can be described thus: Oral pharmacokinetics in monkeys. Type of data set: in vivo, monkey. The note with it: oral suspension, 10 to 100 mg/kg. On the procedure: as §1, §2
Data set [5] has as its system aqueous humor protein after paracentesis. Description: Ocular inflammation (paracentesis) in rabbits. The note with it: 0.01% RTA 408 in the formulation, instillation. Type of data set: in vivo, rabbit. On the procedure: Each rabbit was given three instillations within 60 min before induction of paracentesis and two instillations within 30 min after induction of paracentesis. Each instillation was 50 μL and given in both eyes. Aqueous humor for 6 animals per time-point was collected 30 min and again 2 h after induction of paracentesis. The amount of inflammation was determined by protein concentration in the aqueous humor.

For data set [6], the system named is cardiovascular function. Kind of data set: Cardiovascular evaluation in conscious cynomolgus monkeys (telemetry). Format: in vivo, cynomolgus monkey. On the procedure: Animals were instrumented with telemetry transmitters for measurement of body temperature, blood pressure, heart rate, and electrocardiogram (ECG) evaluation. Body temperature, systolic, diastolic, and mean arterial blood pressure, heart rate, and ECG parameters (QRS duration and RR, PR, and QT intervals) were monitored continuously from at least 2 h pre-dose until at least 24 h post-dose. ECG tracings were printed at designated time points from the cardiovascular monitoring data and were qualitatively evaluated by a board-certified veterinary cardiologist.
Observations for morbidity, mortality, injury, and availability of food and water were conducted at least twice daily for all animals. Clinical observations were conducted pre-dose, approximately 4 h post-dose, and following completion of the cardiovascular monitoring period. Body weights were measured and recorded on the day prior to each treatment administration.

Data set [7] is described as follows: Ocular absorption and distribution in rabbits. Type of data set: in vivo, rabbit. On the procedure:
Using rabbits, the ocular absorption and systemic pharmacokinetic behavior of RTA 408 was evaluated. RTA 408 was administered topically to the eye once per day for five days.

For orientation: IC50 means the midpoint of a concentration-inhibition curve. Regarding `CC1(C)CC[C@]2(NC(=O)C(C)(F)F)CC[C@]3(C)[C@H](C(=O)C=C4[C@@]5(C)C=C(C#N)C(=O)C(C)(C)[C@@H]5CC[C@]43C)[C@@H]2C1` [RTA 408, N-((4aS,6aR,6bS,8aR,12aS,14aR,14bS)-11-cyano-2,2,6a,6b,9,9,12a-heptamethyl-10,14-dioxo-1,2,3,4,4a,5,6,6a,6b,7,8,8a,9,10,12a,14,14a,14b-octadecahydropicen-4a-yl)-2,2-difluoropropanamide], the IC50 in data set [1] fell in the range of 5 to 10 nM. Further, in data set [2], the Intracellular pyruvate levels result is “increased intracellular pyruvate levels in a dose-dependent manner”. Further, the “Time of maximal concentrations” value in data set [3] and in data set [4] was 1 to 24 h throughout. Moreover, the Aqueous humor protein entry in data set [5] is listed as “reduction in aqueous humor protein similar to that of the highest concentration of any of the other reference compounds”. Moreover, the “Increase in the corrected QT interval (on average)” value in data set [6] (100 mg/kg oral, not considered treatment related) is on record as 1.6%. Further, in data set [6] (oral, doses up to and including 100 mg/kg), the Cardiovascular function entry is reported as “produced no effects on cardiovascular function”. Besides, the Ocular tissue distribution result in data set [7] (ocular topical administration) is recorded as “highest concentrations of the compound were found in the cornea, retina, or iris”. Besides, the “Plasma concentration after ocular administration” value in data set [7] (topical to the eye once per day for five days) is recorded as “lower plasma concentration of RTA 408 relative to when RTA 408 is administered orally”.
